SMILES strings stand for the structures. Where a name gives a salt, the structure may show the parent alone. A value given as a limit tells only on which side of the number the result lay.

Format in all cases: biochemical
One experiment has as its target T1, recombinant human VAP-1 (Homo sapiens, UniProt Q16853).
T1 construct: purchased R&D systems
T1 sequence (Q16853 1-763): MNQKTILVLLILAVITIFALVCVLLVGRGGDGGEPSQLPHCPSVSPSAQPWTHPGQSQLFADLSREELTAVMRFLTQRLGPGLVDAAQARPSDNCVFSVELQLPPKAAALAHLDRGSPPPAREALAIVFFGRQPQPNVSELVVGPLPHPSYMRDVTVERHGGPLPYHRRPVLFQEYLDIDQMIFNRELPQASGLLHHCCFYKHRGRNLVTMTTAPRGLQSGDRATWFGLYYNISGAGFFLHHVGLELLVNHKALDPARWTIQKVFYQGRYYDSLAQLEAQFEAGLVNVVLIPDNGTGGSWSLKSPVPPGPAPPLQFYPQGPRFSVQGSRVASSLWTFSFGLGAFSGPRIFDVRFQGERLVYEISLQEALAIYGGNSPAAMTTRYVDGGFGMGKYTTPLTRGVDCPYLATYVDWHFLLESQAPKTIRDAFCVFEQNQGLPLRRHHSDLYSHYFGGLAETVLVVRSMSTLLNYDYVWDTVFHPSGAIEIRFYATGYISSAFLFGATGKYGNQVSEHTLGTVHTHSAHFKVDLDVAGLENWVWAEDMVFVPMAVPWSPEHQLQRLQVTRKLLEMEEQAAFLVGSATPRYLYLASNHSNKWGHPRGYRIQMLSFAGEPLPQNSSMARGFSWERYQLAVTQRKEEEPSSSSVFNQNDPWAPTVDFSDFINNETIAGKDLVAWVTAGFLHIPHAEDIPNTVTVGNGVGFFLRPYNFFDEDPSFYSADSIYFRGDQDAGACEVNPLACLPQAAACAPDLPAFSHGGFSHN
Kind of experiment: Activity on recombinant human VAP-1, HRP-coupled Amplex Red hydrogen peroxide assay. Particulars: substrate 1 mM benzylamine; compound incubated with enzyme at 37° C. for 30 minutes; pH 7.4; read-out: Inhibitory Activity (IC50, nM) human VAP-1. The gist of the method:
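Enzyme in 50 mM sodium phosphate pH 7.4 preincubated with compound 30 min at 37 °C, then 1 mM benzylamine, 200 µM Amplex Red and 1 U/mL HRP added. H2O2-derived resorufin fluorescence (ex 544/em 590 nm) followed over 1–2 h; signal-rate decrease versus DMSO control, 8-point curve, four-parameter logistic IC50.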

The target of experiment [1] is T2, recombinant human MAO-A (monoamine oxidase-A) (Homo sapiens, UniProt P21397).
T2 construct: purchased Sigma-Aldrich
T2 sequence (P21397 1-527): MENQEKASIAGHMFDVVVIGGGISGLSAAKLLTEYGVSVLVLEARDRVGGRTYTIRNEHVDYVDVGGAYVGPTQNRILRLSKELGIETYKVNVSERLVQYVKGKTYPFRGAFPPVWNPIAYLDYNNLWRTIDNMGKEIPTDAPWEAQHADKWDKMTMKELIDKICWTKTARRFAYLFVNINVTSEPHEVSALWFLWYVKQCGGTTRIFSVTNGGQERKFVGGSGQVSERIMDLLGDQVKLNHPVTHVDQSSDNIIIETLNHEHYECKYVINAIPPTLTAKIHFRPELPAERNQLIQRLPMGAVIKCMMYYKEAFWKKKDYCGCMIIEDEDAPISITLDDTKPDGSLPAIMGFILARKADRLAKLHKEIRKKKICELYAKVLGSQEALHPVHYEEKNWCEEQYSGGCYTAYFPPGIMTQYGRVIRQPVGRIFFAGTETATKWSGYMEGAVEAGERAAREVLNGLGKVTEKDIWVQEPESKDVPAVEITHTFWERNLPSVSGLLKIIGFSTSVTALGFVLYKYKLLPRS
Briefly: Activity on recombinant human MAO-A, method similar to the VAP-1 assay. Particulars: substrate 0.5 mM tyramine; read-out: Inhibitory Activity (IC50, nM) MAO-A. The gist of the method:
(§1)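 Enzyme preincubated with compound 30 min at 37 °C in 50 mM sodium phosphate pH 7.4, final DMSO below 1%. Substrate was 0.5 mM tyramine for MAO-A and 1 mM benzylamine for MAO-B, with 200 uM Amplex Red and 1 U/mL HRP. H2O2-coupled resorufin fluorescence (ex 544/em 590) followed over 1–2 h; 8-point 4-parameter IC50.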

Experiment [2] addresses T3, recombinant human MAO-B (monoamine oxidase-B) (Homo sapiens, UniProt P27338).
T3 construct: purchased Sigma-Aldrich
T3 sequence (P27338 1-520): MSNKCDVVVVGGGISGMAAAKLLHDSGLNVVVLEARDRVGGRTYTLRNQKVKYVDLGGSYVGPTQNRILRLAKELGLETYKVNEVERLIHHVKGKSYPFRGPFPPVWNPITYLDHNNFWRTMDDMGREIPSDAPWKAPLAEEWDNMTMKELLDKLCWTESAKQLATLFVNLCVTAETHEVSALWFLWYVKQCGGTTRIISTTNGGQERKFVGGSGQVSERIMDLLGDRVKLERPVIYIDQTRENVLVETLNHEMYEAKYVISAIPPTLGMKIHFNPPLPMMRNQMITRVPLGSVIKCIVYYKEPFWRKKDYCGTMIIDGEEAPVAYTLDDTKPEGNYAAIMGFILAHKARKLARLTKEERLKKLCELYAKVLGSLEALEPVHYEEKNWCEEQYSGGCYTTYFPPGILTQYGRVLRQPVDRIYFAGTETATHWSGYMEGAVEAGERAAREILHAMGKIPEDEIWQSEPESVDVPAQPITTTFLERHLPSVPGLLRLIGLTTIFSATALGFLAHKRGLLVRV
Briefly: Activity on recombinant human MAO-B, method similar to the VAP-1 assay. Particulars: substrate 1 mM benzylamine; read-out: Inhibitory Activity (IC50, nM) MAO-B. The gist of the method: as §1

Experiment [3] addresses T4, recombinant human DAO (diamine oxidase) (Homo sapiens, UniProt P19801).
T4 construct: purchased R&D systems
T4 sequence (P19801 20-751): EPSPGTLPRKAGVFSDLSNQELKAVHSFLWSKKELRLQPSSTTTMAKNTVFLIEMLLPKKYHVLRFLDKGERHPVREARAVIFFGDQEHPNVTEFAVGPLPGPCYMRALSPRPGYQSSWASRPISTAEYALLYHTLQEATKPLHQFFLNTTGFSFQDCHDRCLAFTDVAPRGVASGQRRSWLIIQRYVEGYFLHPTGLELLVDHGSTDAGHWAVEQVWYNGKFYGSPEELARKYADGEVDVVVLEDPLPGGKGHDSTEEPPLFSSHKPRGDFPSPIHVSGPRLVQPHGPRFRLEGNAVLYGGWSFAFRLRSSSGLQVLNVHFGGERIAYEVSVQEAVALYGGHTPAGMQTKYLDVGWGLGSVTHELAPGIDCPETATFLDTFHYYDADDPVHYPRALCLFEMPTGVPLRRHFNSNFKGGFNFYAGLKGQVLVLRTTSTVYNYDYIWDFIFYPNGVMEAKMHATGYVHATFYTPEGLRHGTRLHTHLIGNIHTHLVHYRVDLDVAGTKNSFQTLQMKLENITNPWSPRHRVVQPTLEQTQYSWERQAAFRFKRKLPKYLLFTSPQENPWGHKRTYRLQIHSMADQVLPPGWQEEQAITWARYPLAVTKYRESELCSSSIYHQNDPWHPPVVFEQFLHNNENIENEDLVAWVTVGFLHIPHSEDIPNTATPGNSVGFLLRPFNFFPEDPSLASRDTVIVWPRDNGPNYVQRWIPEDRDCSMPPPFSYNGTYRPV
Briefly: Activity on recombinant human DAO, method similar to the VAP-1 assay. Particulars: substrate 1 mM putrescine; read-out: Inhibitory Activity (IC50, nM) DAO. The gist of the method:
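Inhibition of recombinant human diamine oxidase (DAO, R&D systems) was assessed by the same approach as the VAP-1 assay, using 1 mM putrescine as substrate. Hydrogen peroxide formed was detected through an HRP-coupled Amplex Red reaction yielding fluorescent resorufin, read at 544 nm excitation and 590 nm emission. IC50 values came from four-parameter logistic fitting in GraphPad Prism.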

In the case of `NC/C(=C\F)Cn1ncn(Cc2ccc(-c3cnn(C4CCNCC4)c3)s2)c1=O` [Example 190, 2-[(2E)-2-(aminomethyl)-3-fluoroprop-2-en-1-yl]-4-({5-[1-(piperidin-4-yl)-1H-pyrazol-4-yl]thiophen-2-yl}methyl)-2,4-dihydro-3H-1,2,4-triazol-3-one], the half-inhibitory concentration (IC50) (as a rule, the concentration that gives 50% inhibition) is 3.8 nM at recombinant human VAP-1, over 100000 nM in experiment [1], over 100000 nM in experiment [2] and 1800 nM in experiment [3].

With `CC(=O)Nc1nc2cc(-c3ccc(Cn4cnn(C/C(=C/F)CN)c4=O)s3)ccc2s1` [Example 189, N-{5-[5-({1-[(2E)-2-(aminomethyl)-3-fluoroprop-2-en-1-yl]-5-oxo-1,5-dihydro-4H-1,2,4-triazol-4-yl}methyl)thiophen-2-yl]-1,3-benzothiazol-2-yl}acetamide], the IC50 came out at 0.7 nM on recombinant human VAP-1, 22500 nM in experiment [1], 420 nM in experiment [2] and 780 nM in experiment [3].

Consider `NC/C(=C\F)Cn1ncn(Cc2ccc(-c3ccc4c(c3)NCCO4)s2)c1=O` [Example 105, 2-[(E)-2-(aminomethyl)-3-fluoro-allyl]-4-[[5-(3,4-dihydro-2H-1,4-benzoxazin-6-yl)-2-thienyl]methyl]-1,2,4-triazol-3-one], for which the IC50 at recombinant human VAP-1 was 1.8 nM; in experiment [1], 38400 nM; in experiment [2] it was 420 nM; in experiment [3], 8500 nM.

In the case of `NC/C(=C\F)Cn1ncn(Cc2ccc(-c3cccc(-c4ncon4)c3)s2)c1=O` [Example 34, 2-[(2E)-2-(aminomethyl)-3-fluoroprop-2-en-1-yl]-4-(5-[3-(1,2,4-oxadiazol-3-yl)phenyl]thiophen-2-ylmethyl)-2,4-dihydro-3H-1,2,4-triazol-3-one], the IC50 was 2 nM on recombinant human VAP-1, over 100000 nM in experiment [1], 116 nM in experiment [2] and 660 nM in experiment [3].

Take `NC/C(=C\F)Cn1ncn(Cc2ccc(-c3csc(CO)c3)s2)c1=O` [Example 164, 2-[(2E)-2-(aminomethyl)-3-fluoroprop-2-en-1-yl]-4-{[5′-(hydroxymethyl)-2,3′-bithiophen-5-yl]methyl}-2,4-dihydro-3H-1,2,4-triazol-3-one]: the IC50 was 2.5 nM on recombinant human VAP-1, over 100000 nM in experiment [1], 170 nM in experiment [2] and 6800 nM in experiment [3].

Turning to `NC/C(=C\F)Cn1ncn(Cc2ccc(-c3ccc4c(c3)NC(=O)CO4)s2)c1=O` [Example 90, 6-[5-(1-[(2E)-2-(aminomethyl)-3-fluoroprop-2-en-1-yl]-5-oxo-1,5-dihydro-4H-1,2,4-triazol-4-ylmethyl)thiophen-2-yl]-2H-1,4-benzoxazin-3(4H)-one hydrochloride], the IC50 on recombinant human VAP-1 is 0.4 nM; in experiment [1] it was 24000 nM; in experiment [2], 660 nM; in experiment [3], 230 nM.

`CC(=O)N1CCN(c2ccc(-c3ccc(Cn4cnn(C/C(=C/F)CN)c4=O)s3)cc2)CC1` [Example 24, 4-(5-[4-(4-acetylpiperazin-1-yl)phenyl]thiophen-2-ylmethyl)-2-[(2E)-2-(aminomethyl)-3-fluoroprop-2-en-1-yl]-2,4-dihydro-3H-1,2,4-triazol-3-one hydrochloride]: the IC50 was 1.4 nM at recombinant human VAP-1, 21000 nM in experiment [1], over 10000 nM in experiment [2] and 670 nM in experiment [3].

`CN(C)c1ccc(-c2ccc3sc(Cn4cnn(C/C(=C/F)CN)c4=O)cc3c2)cn1` [Example 212, 2-[(2E)-2-(aminomethyl)-3-fluoroprop-2-en-1-yl]-4-({5-[6-(dimethylamino)pyridin-3-yl]-1-benzothiophen-2-yl}methyl)-2,4-dihydro-3H-1,2,4-triazol-3-one]: the half-maximal inhibitory concentration (IC50) at recombinant human VAP-1 was determined as 2.3 nM; in experiment [1], 37000 nM; in experiment [2] it was 4900 nM; in experiment [3], 77000 nM.
